For eleven molecules, % of control, activity and % of inhibition results are on record in ChEMBL document CHEMBL5465560, “Selectivity Literature for EUbOPEN Chemogenomic Library” (2024).

Molecules are shown by their SMILES.

For data set [1], the target named is G protein-coupled receptor kinase 6 (Homo sapiens) (UniProt P43250). Nature of the data set: Selectivity interaction (ProQinase) EUB0000171b GRK6.
The target in data set [2] is Mitogen-activated protein kinase 14 (Homo sapiens, UniProt Q16539). Nature of the data set: Selectivity interaction (Millipore kinase profiler) EUB0000124b MAPK14. As to conditions: at 10 µM.
The target of data set [3] is Angiopoietin-1 receptor (Homo sapiens) (UniProt Q02763). Nature of the data set: Selectivity interaction (KinomeScan (DiscoverX)) EUB0001049a TEK. As to conditions: at 1 µM.
Angiopoietin-1 receptor (Homo sapiens), sequence (Q02763 whole entry): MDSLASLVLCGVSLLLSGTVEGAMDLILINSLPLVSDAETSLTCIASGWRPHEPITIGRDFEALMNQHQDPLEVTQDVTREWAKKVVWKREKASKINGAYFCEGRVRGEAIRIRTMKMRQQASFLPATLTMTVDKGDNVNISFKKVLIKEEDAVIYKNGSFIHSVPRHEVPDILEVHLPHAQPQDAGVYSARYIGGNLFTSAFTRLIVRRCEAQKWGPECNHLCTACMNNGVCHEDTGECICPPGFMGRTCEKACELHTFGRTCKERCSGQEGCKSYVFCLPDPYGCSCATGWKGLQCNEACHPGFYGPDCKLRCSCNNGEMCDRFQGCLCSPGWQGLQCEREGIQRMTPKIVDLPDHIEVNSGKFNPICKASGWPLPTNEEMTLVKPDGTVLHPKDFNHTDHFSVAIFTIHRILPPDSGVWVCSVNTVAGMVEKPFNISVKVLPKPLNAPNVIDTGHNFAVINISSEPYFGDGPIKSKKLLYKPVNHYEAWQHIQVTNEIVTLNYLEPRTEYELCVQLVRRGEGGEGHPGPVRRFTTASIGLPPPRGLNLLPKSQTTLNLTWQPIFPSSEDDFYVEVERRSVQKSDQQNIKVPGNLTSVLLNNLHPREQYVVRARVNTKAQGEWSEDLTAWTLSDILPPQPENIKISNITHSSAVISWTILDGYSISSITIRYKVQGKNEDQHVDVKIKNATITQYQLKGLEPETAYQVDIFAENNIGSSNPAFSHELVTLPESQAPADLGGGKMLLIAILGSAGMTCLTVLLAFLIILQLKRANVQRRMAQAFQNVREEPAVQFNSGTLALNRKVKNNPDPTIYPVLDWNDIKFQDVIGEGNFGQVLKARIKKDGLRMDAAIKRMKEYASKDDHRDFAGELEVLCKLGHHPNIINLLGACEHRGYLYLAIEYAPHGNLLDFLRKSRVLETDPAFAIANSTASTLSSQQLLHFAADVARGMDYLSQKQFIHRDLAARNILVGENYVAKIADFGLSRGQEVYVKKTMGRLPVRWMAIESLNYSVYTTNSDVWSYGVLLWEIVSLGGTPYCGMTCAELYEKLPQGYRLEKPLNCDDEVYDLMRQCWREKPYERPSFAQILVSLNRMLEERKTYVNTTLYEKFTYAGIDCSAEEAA
The target in data set [4] is Activin receptor type-2A (Homo sapiens) (UniProt P27037). Nature of the data set: Selectivity interaction (KinomeScan (DiscoverX)) EUB0000655a ACVR2A. The following applies: at 10 µM.
Activin receptor type-2A (Homo sapiens), sequence (P27037 whole entry): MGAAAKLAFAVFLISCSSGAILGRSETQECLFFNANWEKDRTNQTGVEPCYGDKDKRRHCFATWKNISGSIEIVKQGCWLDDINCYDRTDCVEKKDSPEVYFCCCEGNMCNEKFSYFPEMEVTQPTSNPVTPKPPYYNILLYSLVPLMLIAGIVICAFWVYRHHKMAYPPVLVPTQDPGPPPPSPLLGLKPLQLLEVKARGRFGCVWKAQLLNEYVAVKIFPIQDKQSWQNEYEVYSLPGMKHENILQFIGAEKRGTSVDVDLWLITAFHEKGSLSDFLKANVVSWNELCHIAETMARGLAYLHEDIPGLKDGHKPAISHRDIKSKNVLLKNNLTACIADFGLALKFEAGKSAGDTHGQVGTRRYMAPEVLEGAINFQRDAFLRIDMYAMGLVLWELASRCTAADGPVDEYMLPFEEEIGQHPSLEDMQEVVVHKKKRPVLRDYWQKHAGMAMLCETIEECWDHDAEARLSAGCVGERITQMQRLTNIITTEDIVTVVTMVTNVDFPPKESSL
The target of data set [5] is Serine/threonine-protein kinase 25 (Homo sapiens) (UniProt O00506). Nature of the data set: Selectivity interaction (KinomeScan (DiscoverX)) EUB0000695a STK25. The following applies: at 100 nM.
Serine/threonine-protein kinase 25 (Homo sapiens), sequence (O00506 whole entry, looked up): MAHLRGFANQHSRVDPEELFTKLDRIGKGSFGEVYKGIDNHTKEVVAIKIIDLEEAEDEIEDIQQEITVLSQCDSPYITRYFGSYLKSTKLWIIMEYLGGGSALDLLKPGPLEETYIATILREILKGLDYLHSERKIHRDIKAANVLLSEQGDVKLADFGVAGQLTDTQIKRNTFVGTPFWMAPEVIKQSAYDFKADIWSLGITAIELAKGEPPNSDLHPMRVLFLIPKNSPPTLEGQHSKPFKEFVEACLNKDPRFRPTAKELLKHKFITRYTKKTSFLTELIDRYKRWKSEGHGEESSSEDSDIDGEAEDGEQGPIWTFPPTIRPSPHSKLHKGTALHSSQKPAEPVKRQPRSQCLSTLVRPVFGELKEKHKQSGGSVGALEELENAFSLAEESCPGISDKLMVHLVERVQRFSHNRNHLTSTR
Data set [6] addresses L-type calcium channel Cav1.2 (CACNA1C) (Homo sapiens, UniProt Q13936). Nature of the data set: Selectivity interaction (Eurofins CEREP Diversity Profile (receptors and ion channels)) EUB0000279b CACNA1C. The following applies: at 10 µM, read-out: % of control.
Data set [7] concerns the target Receptor-interacting serine/threonine-protein kinase 2 (Homo sapiens, UniProt O43353). Nature of the data set: Selectivity interaction (KinomeScan (DiscoverX)) EUB0000666a RIPK2. The following applies: at 10 µM.
Data set [8] has as its target T1, Ephrin type-A receptor 1 (Homo sapiens) (UniProt P21709).
T1 sequence (whole entry): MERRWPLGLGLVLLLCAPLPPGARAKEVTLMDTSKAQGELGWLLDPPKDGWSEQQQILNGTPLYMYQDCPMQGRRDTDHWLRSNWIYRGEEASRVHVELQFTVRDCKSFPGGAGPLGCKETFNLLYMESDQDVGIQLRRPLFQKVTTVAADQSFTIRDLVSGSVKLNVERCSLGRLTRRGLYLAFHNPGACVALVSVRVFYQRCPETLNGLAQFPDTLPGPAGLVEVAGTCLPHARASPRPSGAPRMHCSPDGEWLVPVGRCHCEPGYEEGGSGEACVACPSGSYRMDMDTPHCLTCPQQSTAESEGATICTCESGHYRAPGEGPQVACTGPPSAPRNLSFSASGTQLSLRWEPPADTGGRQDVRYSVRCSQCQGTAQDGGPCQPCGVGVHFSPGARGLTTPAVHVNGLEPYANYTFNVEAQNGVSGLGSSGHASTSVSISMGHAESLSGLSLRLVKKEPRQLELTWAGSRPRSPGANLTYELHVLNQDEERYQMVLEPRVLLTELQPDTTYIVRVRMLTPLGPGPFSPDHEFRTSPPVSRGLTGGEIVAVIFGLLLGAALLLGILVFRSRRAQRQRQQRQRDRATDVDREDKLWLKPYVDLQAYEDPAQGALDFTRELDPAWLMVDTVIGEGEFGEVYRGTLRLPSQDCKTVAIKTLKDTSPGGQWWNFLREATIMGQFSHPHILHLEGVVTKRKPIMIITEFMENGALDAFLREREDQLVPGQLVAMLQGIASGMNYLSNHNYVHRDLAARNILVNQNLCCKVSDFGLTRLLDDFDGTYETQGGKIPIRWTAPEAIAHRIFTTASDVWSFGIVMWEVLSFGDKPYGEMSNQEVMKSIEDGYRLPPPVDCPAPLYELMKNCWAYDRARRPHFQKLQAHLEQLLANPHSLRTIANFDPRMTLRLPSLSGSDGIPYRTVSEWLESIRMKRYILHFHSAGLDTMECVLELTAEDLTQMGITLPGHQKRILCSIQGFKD
Nature of the data set: Selectivity interaction (Kinase panel (Invitrogen)) EUB0000639a EPHA1. The following applies: at 200 nM.

Data set [9] addresses T2, Phosphatidylinositol 5-phosphate 4-kinase type-2 gamma (Homo sapiens) (UniProt Q8TBX8).
T2 sequence (whole entry): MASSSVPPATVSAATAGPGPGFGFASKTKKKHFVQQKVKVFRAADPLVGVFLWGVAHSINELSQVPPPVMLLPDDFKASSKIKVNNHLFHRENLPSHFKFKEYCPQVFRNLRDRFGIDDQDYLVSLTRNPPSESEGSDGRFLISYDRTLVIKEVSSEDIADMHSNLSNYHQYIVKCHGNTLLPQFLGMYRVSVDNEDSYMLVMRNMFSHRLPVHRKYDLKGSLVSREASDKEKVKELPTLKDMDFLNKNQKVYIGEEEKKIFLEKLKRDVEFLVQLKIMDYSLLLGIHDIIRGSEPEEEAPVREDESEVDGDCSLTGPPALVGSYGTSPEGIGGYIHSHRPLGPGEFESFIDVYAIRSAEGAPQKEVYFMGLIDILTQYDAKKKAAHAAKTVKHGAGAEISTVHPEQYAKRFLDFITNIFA
Nature of the data set: Selectivity interaction (KinomeScan (DiscoverX)) EUB0001619a PIP4K2C. The following applies: at 1 µM.

Data set [10] has as its target T3, Dual specificity tyrosine-phosphorylation-regulated kinase 2 (Homo sapiens) (UniProt Q92630).
T3 sequence (whole entry): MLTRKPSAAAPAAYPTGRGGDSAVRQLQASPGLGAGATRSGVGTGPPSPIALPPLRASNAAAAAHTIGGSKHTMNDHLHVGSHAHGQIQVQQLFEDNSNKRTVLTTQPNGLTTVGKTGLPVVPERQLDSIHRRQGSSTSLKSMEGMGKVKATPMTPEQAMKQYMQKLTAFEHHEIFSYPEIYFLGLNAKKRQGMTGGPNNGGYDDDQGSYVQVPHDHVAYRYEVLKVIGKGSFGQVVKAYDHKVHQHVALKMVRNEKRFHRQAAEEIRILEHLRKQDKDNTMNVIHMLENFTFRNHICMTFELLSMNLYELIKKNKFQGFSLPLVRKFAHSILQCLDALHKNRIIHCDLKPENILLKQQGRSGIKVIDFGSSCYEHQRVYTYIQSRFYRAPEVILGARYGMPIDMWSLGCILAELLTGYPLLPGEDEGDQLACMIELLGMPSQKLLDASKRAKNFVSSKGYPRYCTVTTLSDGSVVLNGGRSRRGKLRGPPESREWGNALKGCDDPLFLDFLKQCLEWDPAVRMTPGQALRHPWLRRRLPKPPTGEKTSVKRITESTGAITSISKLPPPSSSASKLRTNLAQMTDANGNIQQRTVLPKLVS
Nature of the data set: Selectivity interaction (Kinase panel (literature)) EUB0001199aCl DYRK2. The following applies: at 1 µM.

The target in data set [11] is Dual specificity mitogen-activated protein kinase kinase 2 (Homo sapiens) (UniProt P36507). Nature of the data set: Selectivity interaction (KinomeScan (DiscoverX)) EUB0000618a MAP2K2. The following applies: at 10 µM.

G protein-coupled receptor kinase 6 (Homo sapiens), sequence (P43250 whole entry, looked up): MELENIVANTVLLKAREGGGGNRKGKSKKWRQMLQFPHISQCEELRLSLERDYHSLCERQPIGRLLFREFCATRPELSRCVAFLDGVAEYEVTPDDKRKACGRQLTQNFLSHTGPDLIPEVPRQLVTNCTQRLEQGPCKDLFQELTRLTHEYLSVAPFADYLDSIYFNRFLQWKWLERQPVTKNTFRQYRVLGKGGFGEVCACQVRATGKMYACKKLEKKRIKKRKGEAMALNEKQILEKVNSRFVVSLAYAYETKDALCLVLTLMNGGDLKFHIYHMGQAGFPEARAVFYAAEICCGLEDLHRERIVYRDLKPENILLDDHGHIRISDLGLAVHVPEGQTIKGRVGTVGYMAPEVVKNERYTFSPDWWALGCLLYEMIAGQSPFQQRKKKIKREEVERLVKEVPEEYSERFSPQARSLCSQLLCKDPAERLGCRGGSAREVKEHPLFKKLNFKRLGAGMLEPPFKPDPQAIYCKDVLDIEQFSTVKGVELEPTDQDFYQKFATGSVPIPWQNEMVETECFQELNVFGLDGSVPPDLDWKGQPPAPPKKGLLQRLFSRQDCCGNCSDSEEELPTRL
L-type calcium channel Cav1.2 (CACNA1C), sequence (Q13936 whole entry): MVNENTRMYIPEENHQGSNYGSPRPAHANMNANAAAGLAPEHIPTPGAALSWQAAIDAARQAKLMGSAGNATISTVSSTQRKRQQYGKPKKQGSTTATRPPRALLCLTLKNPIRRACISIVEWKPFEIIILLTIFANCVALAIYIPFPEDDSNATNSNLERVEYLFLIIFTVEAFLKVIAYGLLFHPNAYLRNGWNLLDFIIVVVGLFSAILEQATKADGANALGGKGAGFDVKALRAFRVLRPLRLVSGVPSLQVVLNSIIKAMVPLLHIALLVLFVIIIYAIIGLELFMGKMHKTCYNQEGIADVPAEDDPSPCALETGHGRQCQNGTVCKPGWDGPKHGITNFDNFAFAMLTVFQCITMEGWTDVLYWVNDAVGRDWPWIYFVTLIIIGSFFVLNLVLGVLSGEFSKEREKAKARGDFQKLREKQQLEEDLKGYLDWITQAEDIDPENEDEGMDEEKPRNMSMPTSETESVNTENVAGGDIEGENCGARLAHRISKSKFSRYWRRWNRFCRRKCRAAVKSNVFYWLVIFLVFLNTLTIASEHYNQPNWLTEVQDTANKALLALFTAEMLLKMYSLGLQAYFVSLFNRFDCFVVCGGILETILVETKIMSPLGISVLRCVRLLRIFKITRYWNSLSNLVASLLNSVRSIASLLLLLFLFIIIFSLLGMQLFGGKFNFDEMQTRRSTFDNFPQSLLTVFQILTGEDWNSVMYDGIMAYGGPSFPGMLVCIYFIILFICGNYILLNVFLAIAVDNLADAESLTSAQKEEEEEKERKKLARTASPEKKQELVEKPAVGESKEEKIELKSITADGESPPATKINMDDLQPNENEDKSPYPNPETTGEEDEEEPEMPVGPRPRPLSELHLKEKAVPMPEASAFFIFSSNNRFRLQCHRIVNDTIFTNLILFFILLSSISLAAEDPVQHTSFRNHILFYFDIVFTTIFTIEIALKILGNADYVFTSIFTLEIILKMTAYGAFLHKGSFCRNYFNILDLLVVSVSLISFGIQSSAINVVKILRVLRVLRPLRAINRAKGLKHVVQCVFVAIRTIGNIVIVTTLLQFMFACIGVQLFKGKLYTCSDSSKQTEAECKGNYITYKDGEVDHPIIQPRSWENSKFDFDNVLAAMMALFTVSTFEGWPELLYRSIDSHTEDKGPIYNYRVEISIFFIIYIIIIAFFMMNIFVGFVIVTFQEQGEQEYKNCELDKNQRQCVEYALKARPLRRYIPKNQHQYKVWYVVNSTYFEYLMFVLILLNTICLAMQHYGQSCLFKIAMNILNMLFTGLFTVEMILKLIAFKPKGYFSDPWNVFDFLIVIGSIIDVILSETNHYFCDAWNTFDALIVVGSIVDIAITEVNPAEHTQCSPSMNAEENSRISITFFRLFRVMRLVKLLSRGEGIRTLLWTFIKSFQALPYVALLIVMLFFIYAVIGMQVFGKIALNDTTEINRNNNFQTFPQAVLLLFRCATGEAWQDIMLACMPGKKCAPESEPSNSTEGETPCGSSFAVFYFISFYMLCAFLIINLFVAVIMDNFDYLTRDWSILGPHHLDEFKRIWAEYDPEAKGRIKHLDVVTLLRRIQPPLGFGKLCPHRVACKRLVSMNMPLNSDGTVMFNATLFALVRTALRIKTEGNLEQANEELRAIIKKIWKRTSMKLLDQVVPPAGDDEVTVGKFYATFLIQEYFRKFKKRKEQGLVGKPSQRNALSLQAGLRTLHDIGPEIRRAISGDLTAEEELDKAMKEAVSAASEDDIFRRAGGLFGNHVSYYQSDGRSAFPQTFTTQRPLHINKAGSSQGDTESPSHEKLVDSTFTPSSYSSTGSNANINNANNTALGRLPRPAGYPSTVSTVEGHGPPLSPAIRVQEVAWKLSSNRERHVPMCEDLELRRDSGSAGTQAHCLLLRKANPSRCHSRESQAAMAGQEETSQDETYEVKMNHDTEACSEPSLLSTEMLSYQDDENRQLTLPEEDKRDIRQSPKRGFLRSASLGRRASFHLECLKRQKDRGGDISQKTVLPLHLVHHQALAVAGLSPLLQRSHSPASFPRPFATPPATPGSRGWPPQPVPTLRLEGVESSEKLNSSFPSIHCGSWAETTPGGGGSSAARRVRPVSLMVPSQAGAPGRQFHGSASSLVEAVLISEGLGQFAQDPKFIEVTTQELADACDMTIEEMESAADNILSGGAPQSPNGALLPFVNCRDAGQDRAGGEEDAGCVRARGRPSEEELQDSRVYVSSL

Consider `C=CC(=O)Nc1cccc(C(=O)Nc2ccc(Nc3cc(-c4[nH]c(SC)nc4C)ccn3)cc2)c1`, for which the % of control in data set [1] (at 1 µM) was determined as 88%; in data set [1] (at 5 µM) it was 90%.
Molecule `CC(=O)Nc1cccc(-n2c(=O)n(C3CC3)c(=O)c3c(Nc4ccc(I)cc4F)n(C)c(=O)c(C)c32)c1` had a % of control in data set [2] of 84%.
As for `COc1cc(Nc2nc(C)cc(-c3cnn4nc(OC)ccc34)n2)cc(C(F)(F)F)c1`, the % of control in data set [3] stood at 100%.
In turn, `CN(C)CCOc1ccc(-c2nc(-c3ccncc3)c(-c3ccc4c(c3)CC/C4=N\O)[nH]2)cc1` displayed a % of control in data set [4] of 100%.
Regarding `Cc1cc(F)c(C(=O)Nc2cccc(-c3nncn3C(C)C)n2)cc1-n1cnc(C2CC2)c1`, the % of control in [5] was 100%.
On to `CC(=O)c1cc(-c2ccccc2OCC2CC2)c2ncccn12`, for which the activity in data set [6] came to 21%.
Consider `O=C(NOC[C@H](O)CO)c1ccc(F)c(F)c1Nc1ccc(I)cc1F`, for which, in data set [7], the % of control came out at 66%.
`CC[C@@H]1[C@H](F)C(=O)N[C@@H]1COc1nccc2cc(C(N)=O)c(OC)cc12` [ZIMLOVISERTIB]: the % of inhibition in data set [8] came out at 4.58%.
For the molecule `N#Cc1cccc(-c2c[nH]c3ncnc(N4CCOCC4)c23)c1`, the % of control in data set [9] was 21%.
With `CN1Cc2nccc(-c3cn(C)nc3-c3ccc(F)cc3)c2C1=O`, the % of inhibition in data set [10] came to 13%.
In the case of `O[C@H]1CC[C@H](Nc2ncc3nc(Nc4c(F)cc(F)cc4F)n([C@H]4CCOC4)c3n2)CC1`, the % of control in data set [11] amounted to 100%.
